Measured values taken from US12129312B2, “Peptide compound, application thereof and composition containing same” (priority 2017, dated 2024).
Read-outs that look alike come from different tables or passages of the source. Square brackets hold non-standard residues; d marks the D form. Peptide text beside a SMILES is read from it. * marks the point of attachment. Hydrocinnamoyl = O=C(CCc1ccccc1)*; Tic = O=C(O)[C@@H]1Cc2ccccc2CN1; NMeL = CN[C@@H](CC(C)C)C(=O)O

Target: T1, human Chemokine like receptor 1 (Homo sapiens, UniProt Q99788)
T1 construct: host or cells: U2OS (Tango CMKLR1-bla U2OS)
T1 sequence (Q99788 1-373): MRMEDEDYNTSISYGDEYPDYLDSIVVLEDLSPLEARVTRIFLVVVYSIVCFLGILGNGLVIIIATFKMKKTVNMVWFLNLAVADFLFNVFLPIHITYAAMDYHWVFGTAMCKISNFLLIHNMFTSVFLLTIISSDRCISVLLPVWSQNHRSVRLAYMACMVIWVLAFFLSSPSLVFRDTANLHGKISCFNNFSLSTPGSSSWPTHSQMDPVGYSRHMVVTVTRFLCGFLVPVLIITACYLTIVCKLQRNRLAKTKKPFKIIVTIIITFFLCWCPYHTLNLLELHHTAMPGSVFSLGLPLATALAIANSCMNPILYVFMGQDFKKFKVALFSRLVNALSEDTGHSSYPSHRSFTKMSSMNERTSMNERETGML
Assay: Activation of Tango CMKLR1-bla U2OS cells (beta-lactamase FRET reporter)
Type: cell-based
Conditions: read-out: EC50
Summary of the method: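 Agonist mode in Tango CMKLR1-bla U2OS cells, 10000 cells/well seeded overnight, then 10-point 3-fold compound dilutions from 10 mM DMSO stock applied for 4 h at 37 °C, 5% CO2. Beta-lactamase reporter read with CCF4-AM FRET substrate; peptide (D-Tyr)-Phe-Leu-Pro-(D-Ser)-Gln-Phe-(D-Ala)-Tic-Ser served as positive control.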

EC50 (Tango CMKLR1-bla U2OS cells, 4 hours incubation, four-parameter fit of activation rate) | EC50 (determination by the method of Effect Embodiment 1) | Structure (SMILES)
19 nM |  | CC(C)C[C@H](NC(=O)[C@H](Cc1ccccc1)NC(=O)[C@H](N)Cc1ccc(O)cc1)C(=O)N1CCC[C@H]1C(=O)N[C@H](CO)C(=O)N[C@@H](CCC(N)=O)C(=O)N[C@@H](Cc1ccccc1)C(=O)N[C@H](C)C(=O)N1Cc2ccccc2C[C@H]1C(=O)N[C@@H](CO)C(=O)O [YW-3, (D-Tyr)-Phe-Leu-Pro-(D-Ser)-Gln-Phe-(D-Ala)-Tic-Ser, reference compound] (H-[dY]FLP[dS]QF[dA][Tic]S-OH)
 | 2 nM | CC(C)C[C@@H](C(=O)N1CCC[C@H]1C(=O)N[C@H](CO)C(=O)N[C@@H](CCC(N)=O)C(=O)N[C@@H](Cc1ccccc1)C(=O)N[C@H](C)C(=O)N1Cc2ccccc2C[C@H]1C(=O)N[C@@H](CO)C(=O)O)N(C)C(=O)[C@H](Cc1ccccc1)NC(=O)[C@@H](Cc1ccc(O)cc1)NC(=O)CCc1ccccc1 [YW-111, 3-phenylpropanoyl-(D-Tyr)-Phe-(NMe-Leu)-Pro-(D-Ser)-Gln-Phe-(D-Ala)-Tic-Ser-OH] (Hydrocinnamoyl-[dY]F[NMeL]P[dS]QF[dA][Tic]S-OH)
